Experimental data reported in paper PMC6270814, “Effects of Ursolic Acid Derivatives on Caco-2 Cells and Their Alleviating Role in Streptozocin-Induced Type 2 Diabetic Rats” (Molecules, 2014).

Legend:
Caco-2 cells [1] = assay: MTT cytotoxicity assay on Caco-2 cells; format: cell-based, Human; conditions: Homo sapiens, 24 h, mean ± SD, n = 4, read-out: Inhibition Rate %
Method: Human intestinal Caco-2 cells (ATCC, Rockville, MD, USA) were incubated at 37 °C in a humidified atmosphere of 5% CO2 in air. The cells were cultured in Dulbecco’s […] medium (DMEM) with 10% heat-inactivated fetal bovine serum, 1% non-essential amino acids, 1% L-glutamine, 1% penicillin/streptomycin (Gibco Life Technologies, Grand Island, NY, USA). The cells were sub-cultured at confluence by 0.05% trypsin-0.5 mM EDTA treatment before they were applied in the experiment.
A MTT test was conducted to determine the possible toxicity of UA and its derivatives to Caco-2 cells. Briefly, cells were seeded at a density of 1 × 10^4 cells/mL in a 96-well plate and incubated for 24 h. The next day, cells were incubated with vehicle (0.1% DMSO) and compounds at 100, 50, 25, 12.5 μmol/L for 24 h, and then 5 g/L MTT solution (20 μL) was added for 4 h. Absorbance at 570 nm was measured using a Multimodel Plate Reader (Infinite 200, Tecan, Mannedorf, Switzerland).

SGLT-1 = assay: Western blot of SGLT-1 protein expression in Caco-2 cells; format: cell-based, Human; conditions: 100 μM, 6 h
Method: Caco-2 cells were cultured on 6-well plates at a density of 1 × 10^6 cells/well for 13 days. The cells were placed in serum-free medium for 24 h prior to the treatment. Then UA and its derivatives (100 μM) were added, after 6 h incubation, the cells were immediately washed three times with ice-cold PBS and lysed in 200 μL lysis buffer. Cells were allowed to lyse on ice, and then scraped, vortexed, sonicated and stored at −80 °C for further analysis. Protein concentrations were determined as described and cell lysate was subjected to western blot analysis. Briefly, proteins with same amount were denatured in sample buffer, separated on 8% SDS-PAGE gel, and transferred onto a polyvinylidene diflouride membrane. […] Membranes were then incubated overnight at 4 °C in blocking buffer with antibodies for GLUT-2, SGLT-1 and β-actin (EMD, Millipore, Billerica, MA, USA). Membranes were washed with TBST and incubated 1 h with appropriate secondary antibodies. Revelation was performed by using the enhanced chemiluminescence reagent and blue-light sensitive film. Densitometric analysis of films was performed with a Hewlett-Packard scanner equipped with a transparent adaptor and UN-SCAN-IT software.

[2] = system: STZ-induced diabetic rats; assay: Fasting blood glucose in STZ-induced diabetic rats, 4 weeks treatment; format: in vivo, rat; conditions: for effect on lowering fasting blood glucose levels / Fasting Blood Glucose Level, Week 0 / Fasting Blood Glucose Level, Week 1 / Fasting Blood Glucose Level, Week 2 / Fasting Blood Glucose Level, Week 3 / Fasting Blood Glucose Level, Week 4: STZ diabetic rats; for effect on lowering fasting blood glucose levels: 100 mg/kg, 4 weeks; for Fasting Blood Glucose Level, Week 0: Week 0 (before treatment); for Fasting Blood Glucose Level, Week 0 / Fasting Blood Glucose Level, Week 1 / Fasting Blood Glucose Level, Week 2 / Fasting Blood Glucose Level, Week 3 / Fasting Blood Glucose Level, Week 4: compounds 100 mg/kg, n = 6; for Fasting Blood Glucose Level, Week 1 / Fasting Blood Glucose Level, Week 2 / Fasting Blood Glucose Level, Week 3 / Fasting Blood Glucose Level, Week 4: glibenclamide 10 mg/kg daily
Method: Adult male albino rats of Sprague-Dawley rats (180–220 g) were obtained from the Guangdong Medical Lab Animal Center, and maintained under standard laboratory conditions in a temperature (25–30 °C) and light-controlled (12-h light/dark cycle) room with 35%–60% humidity. The animals were acclimatized for 10 days before the experiments and provided with rodent chow and water ad libitum. The investigation was conducted in accordance with the Guide for the Care and Use of Laboratory Animals and approved by the institutional Animal Ethics Committee.
(§1) Diabetes was induced by a single intraperitoneal injection of streptozotocin (Sigma-Aldrich, St. Louis, MO, USA) at a dose of 65 mg/kg body weight. STZ was dissolved in 0.1 M cold citrate buffer, pH 4.5. Control group were injected with citrate buffer alone. After 7 days for the development of diabetes, plasma glucose levels were determined of each rat. Rats with fasting blood glucose (FBG) range of above 16.7 mmol/L were considered as DM rats and were used for further study.
(§2) According to the body weight and plasma glucose levels the rats were divided randomly into seven groups with six rats each and treated as follows: • Group I: Normal rats treated with 0.5% CMC-Na (2 mL/200 g body weight). • Group II: Diabetic rats treated with 0.5% CMC-Na. • Group III: Diabetic rats treated with 10 mg/kg of glibenclamide. • Group IV: Diabetic rats treated with 100 mg/kg of compound 1 (UA). • Group V: Diabetic rats treated with 100 mg/kg of compound 10. • Group VI: Diabetic rats treated with 100 mg/kg of compound 11. • Group VII: Diabetic rats treated with 100 mg/kg of compound 12.
(§3) The treatment was continued daily for 28 days. Blood glucose levels and body weight were measured every week to ascertain the status of diabetes. After 4 weeks of treatment, the animals were fasted for 12 h and sacrificed by cervical dislocation under mild anaesthetization, blood was collected into heparinized tubes and centrifuged at 2,000 rpm for 10 min. Livers and kidneys were removed, washed and homogenized in ice-cold normal saline. This homogenates were centrifuged at 3,000 rpm for 10 min at 4 °C, and the supernatants were collected for the estimate of antioxidant markers.
(§4) Fasting blood glucose levels were estimated on days 0, 7, 14, 28 with the single touch glucometer (Life Scan, Johnson & Johnson Company, New Brunswick, NJ, USA). Serum insulin level was measured by use of a commercial immunoassay kit by enzyme linked immunosorbent assay (Uscn. Life Science Inc., Wuhan, China). Serum total protein, albumin, triglycerides (TG), total cholesterol (TC), high-density lipoprotein cholesterol (HDL-C), and low-density lipoprotein cholesterol (LDL-C) were measured with an automatic biochemical analyzer (Sinnowa D240, Nanjing, China).

[3] = system: STZ-induced diabetic rats; assay: Serum biochemical parameters (insulin, total protein, albumin) in STZ-induced diabetic rats; format: in vivo, rat; conditions: 4 weeks, compounds 100 mg/kg, glibenclamide 10 mg/kg
Method: as §1, §2, §3, §4

[4] = system: STZ-induced diabetic rats; assay: Body weight and daily food intake of STZ-induced diabetic rats; format: in vivo, rat; conditions: compounds 100 mg/kg, glibenclamide 10 mg/kg, oral
Method: as §1, §2, §3

[5] = system: STZ-induced diabetic rats; assay: Oxidative stress markers (GSH, SOD, MDA) in liver and kidney of STZ-induced diabetic rats; format: in vivo, rat; conditions: 4 weeks; for GSH level in kidney: kidney of STZ diabetic rats; for MDA level in the liver: daily administration
Method: as §1, §2, §3
The tissue homogenates of liver and kidney were used for the estimate of antioxidant markers. Glutathione (GSH) level was measured with 5, 5'-dithiobis-(2-nitrobenzoic acid) (DTNB) as described by Sedlak and Lindsay. Superoxide dismutase (SOD) activity was assessed according to the method of Sinha. Malondialdehyde (MDA) activity was estimated with the thiobarbituric acid method.

[6] = system: STZ-induced diabetic rats; assay: Serum lipid profile (TG, TC, LDL-C, HDL-C) in STZ-induced diabetic rats; format: in vivo, rat; conditions: 4 weeks, compounds 100 mg/kg, glibenclamide 10 mg/kg
Method: as §1, §2, §3, §4

Caco-2 cells [7] = assay: 2-NBDG glucose uptake by Caco-2 cell monolayers, Na+-independent (sodium free buffer); format: cell-based, Human; conditions: 100 μM compound, Na+-independent (KCl/K2HPO4 buffer)
Method: Caco-2 cells, which were derived from human colon adenocarcinoma, were selected for intestinal absorption studies because these cells express the morphological characteristics and most of the functional properties of differentiated small-intestinal enterocytes. Caco-2 cells were seeded on 24-well plates at the density of 2 × 10^5 cells/well. The medium was changed every 1–2 days, and the culture was carried out for 13 days. Then Caco-2 cells were placed in serum-free media for 24 h and then they were washed twice with Hanks’ balanced salt solution (HBSS, pH 7.5, 140 mM NaCl, 5 mM KCl, 1.2 mM Na2HPO4, 2 mM CaCl2, 1.2 mM MgSO4, 20 mM HEPES, 0.2% bovine serum albumin) before the uptake studies. When a sodium free buffer was required, NaCl and Na2HPO4 were replaced with equal amounts of KCl and K2HPO4, respectively. After washing, the cells were incubated for 15 min at room temperature in HBSS before the commencement of this experiment. The uptake studies were initiated by adding HBSS containing either control or test solution (100 μM) and […] (100 μM) for 30 min at 37 °C. Glucose uptake was stopped by adding twofold volume of ice-cold PBS and the wells were washed with ice-cold PBS three times. Fluorescent intensity was measured by a Multimodel Plate Reader (Tecan Infinity 200) with the 485 nmex and 535 nmemiss filter set before and after adding 2-NBDG. Then the cells were lysed in 200 μL lysis buffer (10 mM Tris-HCl pH = 7.4, 150 mM NaCl, 1% Triton-x-100, 1 mM EDTA, 0.1% SDS) and supplemented immediately before they were processed with 10 μg/mL PMSF. Cells were allowed to lyse on ice, and then vortexed and sonicated. The lysate was used for protein determination, protein concentrations were determined as described by BCA kit (Boster, Wuhan, China) with bovine serum albumin as standard.

## CC(=O)O[C@H]1CC[C@@]2(C)C(CC[C@]3(C)C2CC=C2C4[C@@H](C)[C@H](C)CC[C@]4(C(=O)Nc4ccc(Cl)cc4)CC[C@]23C)C1(C)C (stereo partly drawn) [Compound 4]
Caco-2 cells [1]
  inhibition at 100 µM: 8.53 ± 5.69%

## CC(=O)O[C@H]1CC[C@@]2(C)C(CC[C@]3(C)C2CC=C2C4[C@@H](C)[C@H](C)CC[C@]4(C(=O)Nc4ccc(Br)cc4)CC[C@]23C)C1(C)C (stereo partly drawn) [Compound 5]
Caco-2 cells [1]
  inhibition at 100 µM: 8.72 ± 1.18%

## CC(C)C(=O)O[C@H]1CC[C@@]2(C)C(CC[C@]3(C)C2CC=C2C4[C@@H](C)[C@H](C)CC[C@]4(C(=O)O)CC[C@]23C)C1(C)C (stereo partly drawn) [Compound 12]
Caco-2 cells [1]
  inhibition at 100 µM: 7.67 ± 5.36%
SGLT-1
  effect on protein expression of SGLT-1: significantly reduce
[2]
  effect on lowering fasting blood glucose levels: no significant effect
  Fasting Blood Glucose Level, Week 1: 392.40 ± 36.54 mg/dL
  Fasting Blood Glucose Level, Week 2: 379.80 ± 30.60 mg/dL
  Fasting Blood Glucose Level, Week 3: 408.60 ± 20.52 mg/dL
  Fasting Blood Glucose Level, Week 4: 432.00 ± 28.26 mg/dL
[2]; glibenclamide 10 mg/kg
  Fasting Blood Glucose Level, Week 0: 325.80 ± 14.58 mg/dL
[3]
  serum albumin level vs diabetic control: no appreciable improvement
  serum insulin level vs diabetic control: non-significant effect
  serum total protein level vs diabetic control: no appreciable improvement
[4]
  daily food intake vs untreated diabetic rats: no obvious decrease
[5]
  GSH level in kidney: great effect

## CC(=O)O[C@H]1CC[C@@]2(C)C(CC[C@]3(C)C2CC=C2C4[C@@H](C)[C@H](C)CC[C@]4(C(=O)Nc4ccccc4Br)CC[C@]23C)C1(C)C (stereo partly drawn) [Compound 8]
Caco-2 cells [1]
  inhibition at 100 µM: 9.86 ± 2.68%

## CC(=O)O[C@H]1CC[C@@]2(C)C(CC[C@]3(C)C2CC=C2C4[C@@H](C)[C@H](C)CC[C@]4(C(=O)Nc4ccc(F)cc4)CC[C@]23C)C1(C)C (stereo partly drawn) [Compound 3]
Caco-2 cells [1]
  inhibition at 100 µM: 8.65 ± 3.49%

## COc1ccc(Cl)cc1C(=O)NCCc1ccc(S(=O)(=O)NC(=O)NC2CCCCC2)cc1 [Glibenclamide, reference compound]
[2]; glibenclamide 10 mg/kg
  Fasting Blood Glucose Level, Week 0: 338.40 ± 16.38 mg/dL
[2]
  Fasting Blood Glucose Level, Week 1: 271.80 ± 18.36 mg/dL
  Fasting Blood Glucose Level, Week 2: 183.60 ± 11.70 mg/dL
  Fasting Blood Glucose Level, Week 3: 216.00 ± 9.72 mg/dL
  Fasting Blood Glucose Level, Week 4: 203.40 ± 13.50 mg/dL
[2]; end of the 4 week treatment, compound 10 100 mg/kg, glibenclamide 10 mg/kg
  decrease in blood glucose levels as compared with diabetic control: 54.4%
[3]
  serum albumin level vs diabetic control: increased significantly
  serum insulin level vs diabetic control: increased significantly
  serum total protein level vs diabetic control: increased significantly
[4]
  daily food intake vs untreated diabetic rats: reduce daily food intake significantly
[6]
  serum TC level vs diabetic control: significantly decreased
  serum TG level vs diabetic control: significantly decreased
[5]; liver and kidney of STZ diabetic rats
  SOD level in the liver and kidney: great improvement
[5]; liver of STZ diabetic rats
  GSH level in liver: significant effects
  MDA level in the liver: obviously down-regulated

## CC(=O)O[C@H]1CC[C@@]2(C)C(CC[C@]3(C)C2CC=C2C4[C@@H](C)[C@H](C)CC[C@]4(C(=O)O)CC[C@]23C)C1(C)C (stereo partly drawn) [Compound 9]
Caco-2 cells [1]
  inhibition at 100 µM: 4.4 ± 3.09%

## C[C@H]1[C@H](C)CC[C@]2(C(=O)O)CC[C@]3(C)C(=CC[C@@H]4[C@@]5(C)CC[C@H](O)C(C)(C)[C@@H]5CC[C@]43C)[C@H]12 [Compound 1, Ursolic acid]
Caco-2 cells [1]
  inhibition at 100 µM: 9.88 ± 6.51%
[2]
  effect on lowering fasting blood glucose levels: no significant effect
  Fasting Blood Glucose Level, Week 1: 405.00 ± 17.46 mg/dL
  Fasting Blood Glucose Level, Week 2: 392.40 ± 13.32 mg/dL
  Fasting Blood Glucose Level, Week 3: 379.80 ± 19.44 mg/dL
  Fasting Blood Glucose Level, Week 4: 396.00 ± 16.92 mg/dL
[2]; glibenclamide 10 mg/kg
  Fasting Blood Glucose Level, Week 0: 342.00 ± 19.08 mg/dL
[3]
  serum albumin level vs diabetic control: no appreciable improvement
  serum insulin level vs diabetic control: non-significant effect
  serum total protein level vs diabetic control: no appreciable improvement
[4]
  daily food intake vs untreated diabetic rats: no obvious decrease
[5]
  GSH level in kidney: great effect
[5]; liver of STZ diabetic rats
  MDA level in the liver: obviously down-regulated

## O=C(CCc1ccc(O)cc1)c1c(O)cc(O)cc1O [Phloretin, reference compound]
Caco-2 cells [1]
  inhibition at 100 µM: 4.7 ± 2.59%

## CC(=O)O[C@H]1CC[C@@]2(C)C(CC[C@]3(C)C2CC=C2C4[C@@H](C)[C@H](C)CC[C@]4(C(=O)Nc4ccccc4)CC[C@]23C)C1(C)C (stereo partly drawn) [Compound 2]
Caco-2 cells [1]
  inhibition at 100 µM: 5.02 ± 2.38%

## O=C(CCc1ccc(O)cc1)c1c(O)cc(O)cc1O[C@@H]1O[C@H](CO)[C@@H](O)[C@H](O)[C@H]1O [Phlorizin, reference compound]
Caco-2 cells [1]
  inhibition at 100 µM: 7.7 ± 3.91%
Caco-2 cells [7]
  glucose uptake, % of the control value (Na+-independent): 75 % of the control value

## CC(=O)O[C@H]1CC[C@@]2(C)C(CC[C@]3(C)C2CC=C2C4[C@@H](C)[C@H](C)CC[C@]4(C(=O)Nc4ccccc4Cl)CC[C@]23C)C1(C)C (stereo partly drawn) [Compound 7]
Caco-2 cells [1]
  inhibition at 100 µM: 8.14 ± 3.81%
